Test results from patent US8664206B2, “Diastereomers of 2-methylene-19-nor-22-methyl-1α,25-dihydroxyvitamin D3” (Wisconsin Alumni Research Foundation, priority 2010, dated 2014).
Entries after “also recorded” stand apart in the source; their conditions may differ.

Key:
[1] = system: 24-hydroxylase (24OHase) gene promoter; experiment: In vitro transcription assay (24-hydroxylase promoter-luciferase in ROS 17/2.8 bone cells); type: cell-based, rat
Description: Transcription activity was measured in ROS 17/2.8 (bone) cells that were stably transfected with a 24-hydroxylase (24OHase) gene promoter upstream of a luciferase reporter gene (Arbour et al., 1998). Cells were given a range of doses. Sixteen hours after dosing the cells were harvested and luciferase activities were measured using a luminometer. RLU=relative luciferase units.

[2] = system: Sprague-Dawley rats; experiment: Intestinal calcium transport (everted gut sac method); type: in vivo, rat
Description: (§1) Male, weanling Sprague-Dawley rats were placed on Diet 11 (0.47% Ca) diet+AEK oil for one week followed by Diet 11 (0.02% Ca)+AEK oil for 3 weeks. The rats were then switched to a diet containing 0.47% Ca for one week followed by two weeks on a diet containing 0.02% Ca. Dose administration began during the last week on 0.02% calcium diet. Four consecutive intraperitoneal doses were given approximately 24 hours apart. Twenty-four hours after the last dose, blood was collected from the severed neck and the concentration of serum calcium determined as a measure of bone calcium mobilization. The first 10 cm of the intestine was also collected for intestinal calcium transport analysis using the everted gut sac method.

[3] = system: Sprague-Dawley rats; experiment: Bone calcium mobilization (serum calcium); type: in vivo, rat
Description: as §1

[4] = molecular target: T1, vitamin D receptor (full-length recombinant rat receptor) (Rattus norvegicus, UniProt P13053); experiment: Vitamin D receptor competitive binding
T1 construct: Full-length recombinant rat receptor was expressed in E. coli; His tag (C); made in house; host or cells: E. coli BL21(DE3) Codon Plus RIL
T1 sequence (P13053 1-423): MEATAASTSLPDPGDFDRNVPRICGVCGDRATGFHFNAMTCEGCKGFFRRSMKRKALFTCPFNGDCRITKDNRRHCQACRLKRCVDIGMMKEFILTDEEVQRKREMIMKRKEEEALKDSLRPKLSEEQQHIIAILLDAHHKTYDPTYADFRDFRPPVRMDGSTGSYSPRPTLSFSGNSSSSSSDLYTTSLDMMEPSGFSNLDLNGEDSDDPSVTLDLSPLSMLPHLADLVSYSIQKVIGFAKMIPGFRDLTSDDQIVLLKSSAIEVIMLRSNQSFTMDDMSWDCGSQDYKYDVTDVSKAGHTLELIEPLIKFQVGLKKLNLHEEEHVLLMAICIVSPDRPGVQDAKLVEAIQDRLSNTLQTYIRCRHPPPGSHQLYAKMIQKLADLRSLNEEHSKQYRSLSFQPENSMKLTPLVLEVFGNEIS
Description: Full-length recombinant rat receptor was expressed in E. coli BL21(DE3) Codon Plus RIL cells and purified to homogeneity using two different column chromatography systems. The first system was a nickel affinity resin that utilizes the C-terminal histidine tag on this protein. The protein that was eluted from this resin was further purified using ion exchange chromatography (S-Sepharose Fast Flow). Aliquots of the purified protein were quick frozen in liquid nitrogen and stored at −80° C. until use. For use in binding assays, the protein was diluted in TEDK50 (50 mM Tris, 1.5 mM EDTA, pH 7.4, 5 mM DTT, 150 mM KCl) with 0.1% Chaps detergent. The receptor protein and ligand concentration was optimized such that no more than 20% of the added radiolabeled ligand was bound to the receptor.
Unlabeled ligands were dissolved in ethanol and the concentrations determined using UV spectrophotometry (1,25(OH)2D3: molar extinction coefficient=18,200 and λmax=265 nm; Analogs: molar extinction coefficient=42,000 and λmax=252 nm). Radiolabeled ligand (^3H-1,25(OH)2D3, ˜159 Ci/mmole) was added in ethanol at a final concentration of 1 nM.
Radiolabeled and unlabeled ligands were added to 100 mcl of the diluted protein at a final ethanol concentration of ≦10%, mixed and incubated overnight on ice to reach binding equilibrium. The following day, 100 mcl of hydroxylapatite slurry (50%) was added to each tube and mixed at 10-minute intervals for 30 minutes. The hydroxylapatite was collected by centrifugation and then washed three times with Tris-EDTA buffer (50 mM Tris, 1.5 mM EDTA, pH 7.4) containing 0.5% Titron X-100. After the final wash, the pellets were transferred to scintillation vials containing 4 ml of Biosafe II scintillation cocktail, mixed and placed in a scintillation counter. Total binding was determined from the tubes containing only radiolabeled ligand.

[5] = system: HL-60 cells; experiment: HL-60 differentiation (nitro blue tetrazolium reduction); type: cell-based, human
Description: The study drugs were dissolved in ethanol and the concentrations determined using UV spectrophotometry. Serial dilutions were prepared so that a range of drug concentrations could be tested without changing the final concentration of ethanol (≦0.2%) present in the cell cultures.
Human promyelocytic leukemia (HL60) cells were grown in RPMI-1640 medium containing 10% fetal bovine serum. The cells were incubated at 37° C. in the presence of 5% CO2.
HL60 cells were plated at 1.2×10^5 cells/ml. Eighteen hours after plating, cells in duplicate were treated with drug. Four days later, the cells were harvested and a nitro blue tetrazolium reduction assay was performed (Collins et al., 1979; J. Exp. Med. 149:969-974). The percentage of differentiated cells was determined by counting a total of 200 cells and recording the number that contained intracellular black-blue formazan deposits. Verification of differentiation to monocytic cells was determined by measuring phagocytic activity (data not shown).

[6] = relative to the native hormone 1,25(OH)2D3 in the same assay, (value for native hormone)/(value for working example), >1 = more active

C=C1[C@H](O)CC(=C/C=C2\CCC[C@@]3(C)C2CC[C@@H]3[C@H](C)[C@H](C)CCC(C)(C)O)C[C@H]1O (stereo partly drawn) [SAG-2, (20R,22R)-2-methylene-19-nor-22-methyl-1α,25-dihydroxyvitamin D3]
EC50 ([1]; Rattus norvegicus): 6 nM | 24OHase Transcription Relative Activity [1, 6]: 0.05 | Net Intestinal Ca2+ Transport (serosal Ca2+ to mucosal Ca2+ ratio, S/M) ([2]; at 260 pM dosage): 0.4^7 | intestinal calcium transport activity compared with 1,25(OH)2D3 (in words) ([2]; rat, intraperitoneal doses): markedly lower than 1,25-(OH)2D3; also recorded: less potency compared to the native hormone; also recorded: little ability to increase transport, except at extremely high concentrations | Net Bone Ca2+ Mobilization ([3]; at 260 pM dosage): −0.1^7 mg/dL | bone calcium mobilization activity compared with 1,25(OH)2D3 (in words) ([3]; rat, intraperitoneal doses): markedly lower than 1,25-(OH)2D3; also recorded: no net calcemic activity on bone; also recorded: very little to no activity in mobilizing calcium from bone stores; also recorded: little or no ability to mobilize bone calcium, even at extremely high concentrations | binding to the nuclear vitamin D receptor compared with 1,25(OH)2D3 (in words) ([4]; competitive binding against 3H-1,25(OH)2D3, recombinant rat receptor): less effective than 1,25-(OH)2D3; also recorded: bind the vitamin D receptor | affinity for the nuclear vitamin D receptor, times less than 1,25(OH)2D3 ([4]; competitive binding, fold LESS affinity than native hormone): approximately 4 times | Ki ([4]; read-out: Competitive VDR Binding (Ki)): 0.2 nM | EC50 ([5]; Homo sapiens, HL-60): 9 nM | HL-60 Differentiation Relative Activity [5, 6]: 0.3
